# According to US20240122930A1, “INTEGRIN INHIBITORS AND USES THEREOF IN COMBINATION WITH OTHER AGENTS” (Pliant Therapeutics, Inc., priority 2022, published 2024):
# Where “and” joins values, the source holds several entries; their conditions need not be identical. Equal entries are not always repeated. Entries after “also recorded” stand apart in the source; their conditions may differ.
# Key:
# Assay type in all cases: in vivo, human
# [1] = Phase 2a clinical trial: pharmacokinetics, sparse sampling, % unbound; conditions: b1346 concentrations; b1380 unbound concentrations
# Source text: Overall Summary of Pharmacokinetics. Based on sparse sampling, overall Compound 5 pharmacokinetics and % unbound in IPF were consistent with that of previous studies. […] Overall % unbound was ˜0.3 to 0.5%. Full PK curve will be predicted using population PK model to project AUC0-24 and Cmax.
# Pharmacokinetic Evaluation. Sparse PK sampling was utilized for pharmacokinetic evaluation.
# [2] = test system: pSMAD2:SMAD2 ratio in BAL; assay: pSMAD2:SMAD2 ratio in BAL and plasma Cmax in healthy subjects
# Description: (§1) In order to evaluate the change of pSMAD2 as a biomarker of TGF-β activity following administration of an integrin inhibitor, and to determine a therapeutically effective dosage and an effective blood plasma Cmax of the integrin inhibitor, healthy subjects were administered Compound 5, a dual selective αVβ6/αVβ1-integrin inhibitor, and the corresponding Cmax levels and decrease in phosphorylation levels and were determined.
# (§2) Healthy non-smoking adult males without history of lung disease were selected as subjects and were randomized into 4 cohorts. Broncoalevaolar lavage samples were obtained from all subjects 1 day prior to start of treatment. Cohorts 1 and 2 were administered 20 mg of a compound daily, wherein 3 subjects were administered the dual selective αVβ6/αVβ1-integrin inhibitor (Compound 5) per every 1 subject receiving a placebo compound. Cohorts 3 and 4 were administered 40 mg of a compound daily, wherein 3 subjects were administered the dual selective αVβ6/αVβ1-integrin inhibitor (Compound 5) per every 1 subject receiving a placebo compound. BAL samples and blood samples were taken from all subjects on Day −1 (baseline) and on Day 7 (end of treatment).
# [3] = as above; conditions: male, human, plasma, 40 mg/day, after the dose on Day 7, subjects of FIG. 8A-8F; read-out: Cmax (peak of the blood plasma concentration)
# Description: as §1, §2
# [4] = test system: participants with idiopathic pulmonary fibrosis (IPF); assay: Phase 2a clinical trial: High Resolution CT-based Quantitative Lung Fibrosis (QLF) imaging; conditions: for Mean Percent Change in QLF Extent From Baseline to Week 12 (Mean Difference) / Median change in QLF Extent From Baseline to Week 12 / QLF extent change Baseline to Week 12: Improvers < −2%, % / QLF extent change Baseline to Week 12: Stable [−2, 2%), % / QLF extent change Baseline to Week 12: Worse > 2%, %: CT Protocol Population
# Description: Study Design and Objectives. […] At Day 1, baseline values were collected.
# […]-IPF study design and objectives.
# QLF was measured by computed tomography. […] QLF refers to quantitative lung fibrosis. […] Per CT protocol population: Participants with both baseline and post baseline high resolution computed tomography (HRCT) scans meet evaluability criteria per Imaging Charter.
# [5] = test system: participants with idiopathic pulmonary fibrosis (IPF); assay: Phase 2a clinical trial: quantitative ground glass (QGG) score on HRCT; conditions: for QGG score, Change to Week 12, LS Mean (SE): placebo 0.0 (0.63); for QGG score, Change to Week 24, LS Mean (SE): placebo −0.7 (1.66)
# [6] = 40 mg/day, after the dose on Day 7, subjects of FIG. 8A-8F
smiles,measurement,setting,value
"COCCN(CCCCc1ccc2c(n1)NCCC2)CC[C@H](Nc1ncnc2ccccc12)C(=O)O [Compound 5, (S)-4-((2-methoxyethyl) (4-(5,6,7,8-tetrahydro-1,8-naphthyridin-2-yl)butyl)amino)-2-(quinazolin-4-ylamino) butanoic acid]",Concentrations in IPF participants versus dose,[1],increased approximately proportionally with dose
same,Cmax (peak of the blood plasma concentration),[2]; [6],700 to 900 ng/mL and < 700 ng/mL
same,PD effect (relative change in pSMAD2:SMAD2 ratio from baseline in BAL),[2]; [6],sustained PD effect; also recorded: transitory PD effect; also recorded: no PD effect
same,correlation of plasma Cmax with reduction of pSMAD2:SMAD2 ratio relative to baseline,[2]; 12 h and 24 h post-administration on Day 7,strongly correlated
same,Cmax,[3],> 900 ng/mL
same,Mean Percent Change in QLF Extent From Baseline to Week 12 (Mean Difference),[4]; 40 mg (N = 15),3.15%
same,Median change in QLF Extent From Baseline to Week 12,[4]; 40 mg (N = 15),1.50%
same,"QLF extent change Baseline to Week 12: Improvers < −2%, %",[4]; 40 mg (N = 15),(6.6%)
same,"QLF extent change Baseline to Week 12: Stable [−2, 2%), %",[4]; 40 mg (N = 15),(46.7%)
same,"QLF extent change Baseline to Week 12: Worse > 2%, %",[4]; 40 mg (N = 15),(46.7%)
same,Mean Percent Change in QLF Extent From Baseline to Week 12 (Mean Difference),[4]; 80 mg (N = 18),0.7%
same,Median change in QLF Extent From Baseline to Week 12,[4]; 80 mg (N = 18),−0.45%
same,"QLF extent change Baseline to Week 12: Improvers < −2%, %",[4]; 80 mg (N = 18),(11.1%)
same,"QLF extent change Baseline to Week 12: Stable [−2, 2%), %",[4]; 80 mg (N = 18),(72.2%)
same,"QLF extent change Baseline to Week 12: Worse > 2%, %",[4]; 80 mg (N = 18),(16.7%)
same,Mean Percent Change in QLF Extent From Baseline to Week 12 (Mean Difference),[4]; 160 mg (N = 14),0%
same,Median change in QLF Extent From Baseline to Week 12,[4]; 160 mg (N = 14),−0.10%
same,"QLF extent change Baseline to Week 12: Improvers < −2%, %",[4]; 160 mg (N = 14),(28.6%)
same,"QLF extent change Baseline to Week 12: Stable [−2, 2%), %",[4]; 160 mg (N = 14),(50.0%)
same,"QLF extent change Baseline to Week 12: Worse > 2%, %",[4]; 160 mg (N = 14),(21.4%)
same,Progression based on mean change from baseline in QLF,"[4]; 160 mg and 320 mg groups, Week 12",No or limited progression
same,Likelihood of stabilization or improvement of fibrosis (QLF) relative to placebo at Week 24,[4]; 320 mg,twice as likely
same,Mean (SD) Change in QLF Extent from Baseline at Week 12,"[4]; 320 mg (n=16), Per CT protocol population, placebo (n=25) 1.46%",0.2%
same,Patients with stable or improved QLF from baseline at week 24,"[4]; 320 mg, per CT protocol population, stable −2% to 2%, improved <−2%, placebo 33%",71%
same,Patients with worsened QLF from baseline at week 24,"[4]; 320 mg, per CT protocol population, worsened >2%, placebo 67%",29%
same,Antifibrotic effect on QLF imaging,"[4]; 40 to 320 mg, Week 12",Dose-dependent antifibrotic effect
same,"QGG score, Change to Week 12, LS Mean Diff (SE) vs. Placebo",[5]; 40 mg (n 15),1.3 (1.04)
same,"QGG score, Change to Week 12, LS Mean (SE)",[5]; 40 mg (n 15),1.3 (0.82)
same,"QGG score, Change to Week 12, LS Mean Diff (SE) vs. Placebo",[5]; 80 mg (n 18),−1.2 (0.98)
same,"QGG score, Change to Week 12, LS Mean (SE)",[5]; 80 mg (n 18),−1.2 (0.74)
same,"QGG score, Change to Week 12, LS Mean Diff (SE) vs. Placebo",[5]; 160 mg (n 14),−0.1 (1.05)
same,"QGG score, Change to Week 12, LS Mean (SE)",[5]; 160 mg (n 14),0.0 (0.84)
same,"QGG score, Change to Week 24, LS Mean Diff (SE) vs. Placebo",[5]; 320 mg (n 14),−1.2 (1.53)
same,"QGG score, Change to Week 24, LS Mean (SE)",[5]; 320 mg (n 14),−1.8 (1.31)
same,"QGG score, Change to Week 12, LS Mean Diff (SE) vs. Placebo",[5]; 320 mg (n 16),−0.2 (1.01)
same,"QGG score, Change to Week 12, LS Mean (SE)",[5]; 320 mg (n 16),−0.2 (0.79)
same,"QGG score, Change to Week 24, LS Mean Diff (SE) vs. Placebo",[5]; All Compound 5 (n 14),−1.2 (1.53)
same,"QGG score, Change to Week 24, LS Mean (SE)",[5]; All Compound 5 (n 14),−1.8 (1.31)
same,"QGG score, Change to Week 12, LS Mean Diff (SE) vs. Placebo",[5]; All Compound 5 (n 63),−0.1 (0.76)
same,"QGG score, Change to Week 12, LS Mean (SE)",[5]; All Compound 5 (n 63),−0.1 (0.40)
same,Ground glass scores over a 12-24 week period after treatment,[5]; instant study,decreased or remained stable
